{
  "source": "patent US4140707A",
  "about": "“Malonato platinum anti-tumor compounds” (priority 1977, dated 1979)",
  "key": {"[1]": {"experiment": "Hydrolysis by U.V./vis spectral and conductivity studies", "type": "physicochemical", "text": "*U.V./via spectral and conductivity studies have shown that hydrolysis is negligible."}, "Sarcoma 180 [2]": {"test_system": "Sarcoma 180", "experiment": "Large Sarcoma 180 regressions (Table II), injection day 8, observed approximately 60 days", "type": "in vivo, female Swiss white mice", "details": "single i.p. day 8, H2O solution", "procedure": "In addition to the day 1 injections described above, in a number of cases injections were delayed until day 8 of tumor growth. In these cases the tumor was usually at least larger than 1/2 gm, as estimated by palpation. The animals were then injected and observed for a period of approximately 60 days. Activity was measured by the number of animals whose tumors had regressed to the vanishing point, while still allowing the animal to survive for this time period. Such test results are described in TABLE II below."}, "Sarcoma 180 [3]": {"test_system": "Sarcoma 180", "experiment": "Antitumor activity, solid Sarcoma 180 (Table I), T/C tumor weight ratio, sacrifice day 10", "type": "in vivo, female Swiss white mice", "procedure": "The compounds of the invention were tested for anti-tumor activity using our standard screening tumor, solid sarcoma 180 tumer in female Swiss white mice, following standard protocols for this testing as set by the National Cancer Institute. (Cancer Chemotherapy Rep., 25(1962)).\nFor these tests an S 180 tumor taken from a sacrificed mouse was disected free of superfluous tissue and cut under sterile conditions into approximately 10 milligram size pieces. These tissue pieces were then implanted by trocar in the left axillary region, subcutaneously, in new mice. The mice were, on the average, approximately four weeks old and weighed 18-20 grams. Taking day 0 as the day of implant, the animals were sacrificed on day 10. The tumors were excised and weighed and the ratio of the weights of the tumors in mice in the treated animals to the control set of animals was obtained. This ratio, multiplied by 100, is given as the T/C ratio in Table I.\nFor the first set of tests the coordination compound was freshly dissolved in sterile distilled water and injected intraperitoneally on day 1 into each of the test mice. The volume of the injection was usually 1/2 ml. In some cases, in order to get an active dose into the animal where the chemical was not soluble in this amount of solvent, a fine dispersion was prepared of the dose needed for the test. Thus, some of our test results were obtained on animals where a slurry of the compound was injected. These are so noted in Table I below. In addition, for some of the compounds, there was injected about 1 ml of solution, either in one single injection, or in 2 injections given a few hours apart of 1/2 ml each. These injections were initially given in 4 different dose levels for each new compound with 6 mice in each dose level. The tests covered a dose range from a low ineffective dose, to an upper dose level which produced some deaths within the time period of the experiment."}, "[4]": {"test_system": "Walker 256 Carcinosarcoma", "experiment": "Confirmatory antitumor activity, Walker 256 Carcinosarcoma (Table III)", "type": "in vivo, Rat", "details": "single injection day 1 in oil, i.p.", "procedure": "Confirmatory tests of antitumor activity against the Walker 256 Circinosarcoma in rats, and the ADJ/PC6A tumor in mice were conducted. The initial test results are shown in Table III and confirm the potent action of the compounds of the invention against these other tumor systems."}, "[5]": {"details": "4 mg/kg, i.p. daily for days 1-10, solution in H2O"}, "[6]": {"details": "5 mg/kg, i.p. daily for days 1-10, solution in H2O"}, "[7]": {"details": "6 mg/kg, i.p. daily for days 1-10, solution in H2O"}, "[8]": {"details": "7 mg/kg, i.p. daily for days 1-10, solution in H2O"}, "[9]": {"details": "10 mg/kg, single i.p. day 1, slurry in H2O"}, "[10]": {"details": "15 mg/kg, single i.p. day 1, slurry in H2O"}, "[11]": {"details": "20 mg/kg, single i.p. day 1, slurry in H2O"}, "[12]": {"details": "25 mg/kg, single i.p. day 1, slurry in H2O"}, "[13]": {"details": "30 mg/kg, single i.p. day 1, slurry in H2O"}, "[14]": {"details": "50 mg/kg, single i.p. day 1, slurry in H2O"}},
  "data": [
    {"molecule": "O=C(O)CC(=O)O.[NH2-].[NH2-].[Pt+2]", "note": "[Malonatodiammineplatinum(II)]", "values": [
      {"measurement": "hydrolysis", "setting": "[1]", "result": "negligible"},
      {"measurement": "Deaths", "setting": "Sarcoma 180 [2]; 14 mg/kg", "result": 4},
      {"measurement": "Total Number of Regressions", "setting": "Sarcoma 180 [2]; 14 mg/kg", "result": 2},
      {"measurement": "Deaths", "setting": "Sarcoma 180 [2]; 16 mg/kg", "result": 3},
      {"measurement": "Total Number of Regressions", "setting": "Sarcoma 180 [2]; 16 mg/kg", "result": 3},
      {"measurement": "Deaths", "setting": "Sarcoma 180 [2]; 18 mg/kg", "result": 2},
      {"measurement": "Total Number of Regressions", "setting": "Sarcoma 180 [2]; 18 mg/kg", "result": 4},
      {"measurement": "Deaths", "setting": "Sarcoma 180 [2]; 20 mg/kg", "result": 1},
      {"measurement": "Total Number of Regressions", "setting": "Sarcoma 180 [2]; 20 mg/kg", "result": 5},
      {"measurement": "No. of Deaths", "setting": "Sarcoma 180 [3]; [5]", "result": 0},
      {"measurement": "T/C", "setting": "Sarcoma 180 [3]; [5]", "result": 54},
      {"measurement": "No. of Deaths", "setting": "Sarcoma 180 [3]; [6]", "result": 0},
      {"measurement": "T/C", "setting": "Sarcoma 180 [3]; [6]", "result": 56},
      {"measurement": "No. of Deaths", "setting": "Sarcoma 180 [3]; [7]", "result": 0},
      {"measurement": "T/C", "setting": "Sarcoma 180 [3]; [7]", "result": 23},
      {"measurement": "No. of Deaths", "setting": "Sarcoma 180 [3]; [8]", "result": 0},
      {"measurement": "T/C", "setting": "Sarcoma 180 [3]; [8]", "result": 12},
      {"measurement": "No. of Deaths", "setting": "Sarcoma 180 [3]; [9]", "result": 0},
      {"measurement": "T/C", "setting": "Sarcoma 180 [3]; [9]", "result": 76},
      {"measurement": "No. of Deaths", "setting": "Sarcoma 180 [3]; [10]", "result": 0},
      {"measurement": "T/C", "setting": "Sarcoma 180 [3]; [10]", "result": 38},
      {"measurement": "No. of Deaths", "setting": "Sarcoma 180 [3]; [11]", "result": 0},
      {"measurement": "T/C", "setting": "Sarcoma 180 [3]; [11]", "result": 64},
      {"measurement": "No. of Deaths", "setting": "Sarcoma 180 [3]; [12]", "result": 0},
      {"measurement": "T/C", "setting": "Sarcoma 180 [3]; [12]", "result": 31},
      {"measurement": "No. of Deaths", "setting": "Sarcoma 180 [3]; [13]", "result": "1/6"},
      {"measurement": "T/C", "setting": "Sarcoma 180 [3]; [13]", "result": 7},
      {"measurement": "No. of Deaths", "setting": "Sarcoma 180 [3]; 40 mg/kg, single i.p. day 1, slurry in H2O", "result": "6/6"},
      {"measurement": "No. of Deaths", "setting": "Sarcoma 180 [3]; [14]", "result": "5/6"},
      {"measurement": "T/C", "setting": "Sarcoma 180 [3]; [14]", "result": 1},
      {"measurement": "No. of Deaths", "setting": "Sarcoma 180 [3]; 60 mg/kg, single i.p. day 1, slurry in H2O", "result": "6/6"},
      {"measurement": "% Inhibition", "setting": "[4]; 10 mg/kg", "result": 100, "unit": "%"},
      {"measurement": "Deaths", "setting": "[4]; 10 mg/kg", "result": 0},
      {"measurement": "% Inhibition", "setting": "[4]; 20 mg/kg", "result": 100, "unit": "%"},
      {"measurement": "Deaths", "setting": "[4]; 20 mg/kg", "result": 0},
      {"measurement": "% Inhibition", "setting": "[4]; 40 mg/kg", "result": 100, "unit": "%"},
      {"measurement": "Deaths", "setting": "[4]; 40 mg/kg", "result": 0},
      {"measurement": "Deaths", "setting": "[4]; 80 mg/kg", "result": 0}
    ]}
  ]
}
